From patent US20220213092A1, “BICYCLIC PYRAZOLE BRUTON'S TYROSINE KINASE INHIBITORS” (AbbVie Inc., priority 2020, published 2022) come the findings set out here.

One experiment has as its target MAP2K1 (Homo sapiens, UniProt Q02750). Briefly: Other kinase MSA: MAP2K1. The following applies: 25 μM ATP, ERKtide substrate; pre-activation of ERK 30 min, detection after 60 minutes; read-out: IC50, Enzyme MAP2K1. The format is biochemical. On the procedure:
Kinase activity, unless otherwise indicated, was measured in vitro using an electrophoretic mobility shift assay (MSA). The phosphorylation of a peptide substrate by BTK and other kinases was measured. The kinase reactions were assembled in a total volume of 25 μL per well in 384 well plates. The following was added to each well: compound buffer (or control); enzyme buffer; and substrate buffer, as further described below. […]
(§1) Enzyme and compound/inhibitor were optionally pre-incubated. […] The kinase activity for the kinases in Table 3 were measured at 3 hours incubation time, except that in the case of MAP2K1 and MAP2K2 assay, pre-activation of ERK was done for 30 min with 6 μM of ATP, and then the detection of activated ERK in the presence of compounds was done after 60 minutes of incubation.
The terminated reactions were analyzed using a 12 channel LABCHIP® 3000 microfluidic detection instrument (available from Caliper Life Sciences, Waltham, Mass.). […] As substrate and product peptides were separated, two peaks of fluorescence were observed. Change in the relative fluorescence intensity of the substrate and product peaks was the parameter measured, reflecting enzyme activity. […] Capillary electrophoregrams (RDA acquisition files) were analyzed using HTS Well Analyzer software (available from Caliper Life Sciences, Waltham, Mass.). […]

Another experiment has as its target BLK (Homo sapiens, UniProt P51451). Put plainly: Other kinase MSA: BLK. The format is biochemical. Here is the method:
Kinase activity, unless otherwise indicated, was measured in vitro using an electrophoretic mobility shift assay (MSA). The phosphorylation of a peptide substrate by BTK and other kinases was measured. The kinase reactions were assembled in a total volume of 25 μL per well in 384 well plates. The following was added to each well: compound buffer (or control); enzyme buffer; and substrate buffer, as further described below.
as §1, with “pre-incubated. To each well was added: 8 μL of 2.5×ATP and substrate in 1× Master Buffer (1× Master Buffer as described above). The plate was incubated at room temperature for 3 hours. […] OG488 was Oregon Green dye, which was conjugated to the peptide substrate.” for “pre-incubated.”
The terminated reactions were analyzed using a 12 channel LABCHIP® 3000 microfluidic detection instrument (available from Caliper Life Sciences, Waltham, Mass.). […] Change in the relative fluorescence intensity of the substrate and product peaks was the parameter measured, reflecting enzyme activity. […]

Sequence of BLK (P51451 whole entry, species assumed): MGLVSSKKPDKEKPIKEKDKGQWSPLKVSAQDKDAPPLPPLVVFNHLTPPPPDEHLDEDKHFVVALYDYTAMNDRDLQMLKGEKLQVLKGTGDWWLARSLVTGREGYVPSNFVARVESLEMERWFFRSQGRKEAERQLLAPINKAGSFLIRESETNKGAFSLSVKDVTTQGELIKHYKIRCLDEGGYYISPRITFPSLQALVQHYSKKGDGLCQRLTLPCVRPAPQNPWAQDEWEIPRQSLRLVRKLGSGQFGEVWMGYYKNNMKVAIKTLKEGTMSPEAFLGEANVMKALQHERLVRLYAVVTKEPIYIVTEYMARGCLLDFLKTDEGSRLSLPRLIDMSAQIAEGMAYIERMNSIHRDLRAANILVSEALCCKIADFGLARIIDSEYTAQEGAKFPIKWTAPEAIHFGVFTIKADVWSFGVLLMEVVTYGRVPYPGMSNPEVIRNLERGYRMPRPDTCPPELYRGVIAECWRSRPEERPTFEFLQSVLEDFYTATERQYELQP
Sequence of MAP2K1 (Q02750 whole entry, species assumed): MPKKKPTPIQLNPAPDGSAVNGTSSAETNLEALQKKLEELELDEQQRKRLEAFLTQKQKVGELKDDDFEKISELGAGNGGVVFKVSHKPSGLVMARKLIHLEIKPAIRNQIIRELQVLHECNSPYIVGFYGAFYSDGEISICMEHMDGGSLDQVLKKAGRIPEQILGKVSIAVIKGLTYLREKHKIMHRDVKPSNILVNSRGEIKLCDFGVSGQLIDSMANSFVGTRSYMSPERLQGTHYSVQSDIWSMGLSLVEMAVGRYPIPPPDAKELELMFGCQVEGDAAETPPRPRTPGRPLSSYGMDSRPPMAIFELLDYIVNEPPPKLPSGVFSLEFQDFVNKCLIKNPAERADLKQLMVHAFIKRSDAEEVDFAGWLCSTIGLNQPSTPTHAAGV

Turning to `C=CC(=O)N1CCC([C@@H]2CCNc3c(C(N)=O)c(-c4ccc(Oc5ccccc5)cc4)nn32)CC1` [Compound A, reference compound], at MAP2K1, the concentration for half-maximal inhibition (IC50) stood at 41.3 nM. `C=CC(=O)N1CCN([C@@H]2CCNc3c2nn(-c2ccc(Oc4ccccc4)cc2)c3C(N)=O)CC1` [Example 6, (7R)-2-(4-phenoxyphenyl)-7-[4-(prop-2-enoyl)piperazin-1-yl]-4,5,6,7-tetrahydro-2H-pyrazolo[4,3-b]pyridine-3-carboxamide] came in with an IC50 against BLK of 137 nM.

Broadly, the IC50 is the point on the concentration scale where inhibition reaches its midpoint.
